Measurements published in patent US6030975A, “Carboxylic acid derivatives, their preparation and use in treating cancer” (priority 1997, dated 2000).
One block for each compound: values may come before it.

How the values were obtained:
DU-145 prostate tumor = assay: DU-145 Model: human prostate (HTB 81) tumor fragments implanted subcutaneously in nude mice; type: in vivo
Method: For example, human tumors which have been grown in nude mice can be transplanted into new recipient mice using tumor fragments which are about 50 mg in size. The day of transplantation is designated as day 0. Five to fifteen days later, the mice are treated with the test compounds given as an intravenous or intraperitoneal injection, in groups of five to ten mice at each dose. Compounds are given daily for either 5, 10 or 15 days, at dosed from 0.1-1000 mg/kg of body weight.
Tumor diameters and body weights are measured periodically. Tumor mass is calculated using the diameters measured with Vernier calipers, and the formula:
(length×width2)/2=mg of tumor weight
Mean tumor weights are calculated for each treatment group relative to the untreated control tumors. The DU-145 Model is a specific example of this type of assay and is described below.
Human tumor fragments from prostate (HTB 81), which had been grown in nude mice were implanted subcutaneously via trochar, in the dorsal side of new recipient nude mice, as is well known in the art. The day of implantation is designated as day 0.
Treatment was commenced on day 11 post implantation using Compound I-1 of Table I. There were 6 mice in each treatment group with the mode of administration and amounts administered (mg/kg of body weight) described in Table XI. Compound I-1 was administered once a day for 10 days commencing, as earlier stated, at day 11 post implantation (Q1D×10:11).

human ETA receptor = target: T1, human ETA receptor (Homo sapiens, UniProt P25101); assay: ETA receptor binding assay ([125I]-ET1) on membranes of CHO cells expressing cloned human ETA receptor; details: Table III
T1 construct: expressed in transfected cells; host or cells: CHO cells
T1 sequence (P25101 21-427): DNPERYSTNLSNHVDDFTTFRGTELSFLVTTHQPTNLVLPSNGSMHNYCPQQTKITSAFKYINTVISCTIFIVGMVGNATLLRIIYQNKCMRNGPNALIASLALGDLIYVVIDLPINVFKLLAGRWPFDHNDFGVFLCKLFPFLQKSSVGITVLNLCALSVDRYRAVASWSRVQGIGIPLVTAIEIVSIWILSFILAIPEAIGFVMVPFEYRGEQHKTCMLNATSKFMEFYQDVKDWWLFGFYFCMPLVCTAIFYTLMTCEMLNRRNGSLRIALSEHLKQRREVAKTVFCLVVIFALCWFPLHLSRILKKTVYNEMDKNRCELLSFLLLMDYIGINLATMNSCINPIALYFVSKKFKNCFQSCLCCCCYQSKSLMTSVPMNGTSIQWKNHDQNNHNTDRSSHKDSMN
Method: (§1) Cloned human ETA receptor-expressing CHO cells and guinea pig cerebellar membranes with >60% ETB compared with ETA receptors were used for binding studies.
The ETA receptor-expressing CHO cells were grown in F12 medium containing 10% fetal calf serum, 1% glutamine, 100 U/ml penicillin and 0.2% streptomycin (Gibco BRL, Gaithersburg, Md., USA). After 48 h, the cells were washed with PBS and incubated with 0.05% trypsin-containing PBS for 5 min. Neutralization was then carried out with F12 medium, and the cells were collected by centrifugation at 300×g. To lyze the cells, the pellet was briefly washed with lysis buffer (5 mM Tris-HCl, pH 7.4 with 10% glycerol) and then incubated at a concentration of 10^7 cells/ml of lysis buffer at 4° C. for 30 min. The membranes were centrifuged at 20,000×g for 10 min., and the pellet was stored in liquid nitrogen.
(§2) The nonspecific binding was determined using 10^-7 M ET1. After 30 min., the free and bound radioligand were separated by filtration through GF/B glass fiber filters (Whatman, England) on a Skatron cell collector (Skatron, Lier, Norway) and the filters were washed with ice-cold Tris-HCl buffer, pH 7.4 with 0.2% BSA. The radioactivity collected on the filters was quantified using a Packard 2200 CA liquid scintillation counter.
The Ki values shown in Table A were determined by non-linear regression analysis using the LIGAND program.

ETB receptor = target: T2, ETB receptor (Cavia porcellus, UniProt H0VTF3); assay: ETB receptor binding assay ([125I]-RZ3) on guinea pig cerebellar membranes; details: Table III
T2 construct: Guinea pig cerebella were homogenized; from tissue; host or cells: guinea pig cerebellum membranes
T2 sequence (H0VTF3 27-415): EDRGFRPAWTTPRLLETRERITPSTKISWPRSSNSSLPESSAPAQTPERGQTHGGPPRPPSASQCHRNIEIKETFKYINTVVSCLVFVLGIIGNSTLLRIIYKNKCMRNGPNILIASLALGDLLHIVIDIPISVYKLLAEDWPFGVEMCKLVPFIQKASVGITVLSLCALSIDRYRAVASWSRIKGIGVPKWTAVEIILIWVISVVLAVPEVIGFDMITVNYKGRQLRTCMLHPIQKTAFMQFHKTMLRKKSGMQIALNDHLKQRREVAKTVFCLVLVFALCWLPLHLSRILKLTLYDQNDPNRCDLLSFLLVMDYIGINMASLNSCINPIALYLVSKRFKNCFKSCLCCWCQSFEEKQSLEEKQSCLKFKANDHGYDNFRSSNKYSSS
Method: as §1
Guinea pig cerebella were homogenized in a Potter-Elvejhem homogenizer and membranes were obtained by differential centrifugation at 1000×g for 10 min. and repeated centrifugation of the supernatant at 20,000×g for 10 min.
as §2

Compound: COC(=O)C(Oc1nc(OC)cc(OC)n1)C(OC)(c1ccccc1)c1ccccc1 (stereo not drawn) [Compound I-1, Methyl 2-(4,6-dimethoxy-pyrimidin-2-yloxy)-3-methoxy-3,3-diphenylpropionate]
Days for Tumor Weight = 1000 mg (DU-145 prostate tumor; 100 mg/kg IV, Q1Dx10:11): 39.3 days
Mean Tumor Weight (MTW) on Day 33 (DU-145 prostate tumor; 100 mg/kg IV, Q1Dx10:11): 561 mg
Days for Tumor Weight = 1000 mg (DU-145 prostate tumor; 150 mg/kg IP, Q1DX10:11): 59.3 days
Mean Tumor Weight (MTW) on Day 33 (DU-145 prostate tumor; 150 mg/kg IP, Q1DX10:11): 407 mg
Days for Tumor Weight = 1000 mg (DU-145 prostate tumor; 150 mg/kg IV, Q1DX10:11): 37.4 days
Mean Tumor Weight (MTW) on Day 33 (DU-145 prostate tumor; 150 mg/kg IV, Q1DX10:11): 793 mg
Days for Tumor Weight = 1000 mg (DU-145 prostate tumor; 220 mg/kg IP, Q1DX10:11): 50.9 days
Mean Tumor Weight (MTW) on Day 33 (DU-145 prostate tumor; 220 mg/kg IP, Q1DX10:11): 470 mg
MTW % T/C (DU-145 prostate tumor; Day 33, 100 mg/kg IV, Q1Dx10:11): 45.54%
MTW % T/C (DU-145 prostate tumor; Day 33, 150 mg/kg IP, Q1DX10:11): 33.04%
MTW % T/C (DU-145 prostate tumor; Day 33, 150 mg/kg IV, Q1DX10:11): 64.37%
MTW % T/C (DU-145 prostate tumor; Day 33, 220 mg/kg IP, Q1DX10:11): 38.15%
response to administration (reduction in the %T/C Mean Tumor Weight) (DU-145 prostate tumor; all doses, IV and IP): all treatment groups responded

Compound: CCCOC(c1ccccc1)(c1ccccc1)C(Oc1nc(OC)cc(OC)n1)C(=O)O (stereo not drawn) [Compound I-12]
Ki (human ETA receptor): 0.019 µM

Compound: CCOC(c1ccccc1)(c1ccccc1)C(Oc1nc(OC)cc(OC)n1)C(=O)O (stereo not drawn) [Compound I-4]
Ki (human ETA receptor): 0.007 µM

Next, values leading:

Ki (human ETA receptor): 0.033 µM
Ki (ETB receptor): 0.97 µM
Compound: COc1cc(OC)nc(OC(C(=O)O)C(OC)(c2ccc(F)cc2)c2ccc(F)cc2)n1 (stereo not drawn) [Compound I-60]

Ki (human ETA receptor): 0.006 µM
Compound: COc1cc(OC)nc(OC(C(=O)O)C(OC)(c2ccccc2)c2ccccc2)n1 (stereo not drawn) [Compound I-2, 2-(4,6-Dimethoxy-pyrimidin-2-yloxy)-3-methoxy-3,3-diphenylpropionic acid]
